The values below come from patent publication US20200157144A1, “ANTIMICROBIAL PEPTIDOMIMETICS” (priority 2017, published 2020).

The subject of the experiment is Mupirocin-resistant MRSA ATCC-BAA-1556. The experiment can be described thus: microbe, parasite or virus in culture. The class given is cell-based, Staphylococcus aureus. As to conditions: ATCC-BAA-1556; read-out: MIC. As for the experimental part:
The MICs of test compounds were determined using the microdilution method from the Clinical and Laboratory Standards Institute (CLSI) guidelines (Clinical and Laboratory Standards Institute. Methods for dilution antimicrobial susceptibility tests for bacteria that grow aerobically; approved standard—ninth edition. Document M07-A9. Vol. 32 No. 2. Wayne, Pa.: CLSI; 2012). Briefly, bacteria were grown fresh from frozen stock in Mueller Hinton 2 (MH2) agar at 37° C. After an overnight incubation, 5 bacteria colonies were selected to grow in cation-adjusted MH2 broth in a shaking incubator (140 RPM) at 37° C. Cells were grown to an optical density (OD600) of 0.15-0.16 determined using a spectrophotometer (Molecular Devices Spectra Max Plus), which corresponds to ˜1×10^8 CFU/mL. Test compounds were constituted into 4 mM DMSO stock solutions and then subjected to 2-fold serial dilution in a 96-well plate with concentrations ranging from 100 to 0.195 μM in duplicates. […] of microbial culture containing ˜1×10^6 CFU/mL of microbes in the respective broths was introduced into each well containing 50 μL of compound solution. After an overnight incubation at 35° C., (220 RPM), OD600 measurements were conducted using the microplate spectrophotometer. The MIC was defined as the lowest antibiotic or compound concentration (μM) required to inhibit bacteria growth.
The 11th well was used as the growth control well (medium with bacterial inoculums, no antibacterial) while the 12th well was the sterility control well (medium only).

In brackets after ≈: the same amount, converted by molar mass. Square brackets hold non-standard residues; d marks the D form. Peptide text beside a SMILES is read from it. Bip(4'-Cl) = N[C@@H](Cc1ccc(-c2ccc(Cl)cc2)cc1)C(=O)O; dBip(4'-Cl) = N[C@H](Cc1ccc(-c2ccc(Cl)cc2)cc1)C(=O)O; Bip(4'-Me) = Cc1ccc(-c2ccc(C[C@H](N)C(=O)O)cc2)cc1; Bip = N[C@@H](Cc1ccc(-c2ccccc2)cc1)C(=O)O; dBip = N[C@H](Cc1ccc(-c2ccccc2)cc1)C(=O)O; Phe(4-Br) = N[C@@H](Cc1ccc(Br)cc1)C(=O)O; Phe(4-Cl) = N[C@@H](Cc1ccc(Cl)cc1)C(=O)O; Phe(4-I) = N[C@@H](Cc1ccc(I)cc1)C(=O)O; Phe(4-Me) = Cc1ccc(C[C@H](N)C(=O)O)cc1 Where only a bound is given, the exact number is not on record here.

As to `N=C(N)NCCCCNC(=O)[C@H](Cc1ccc(-c2ccccc2)cc1)NC(=O)[C@H](CCCNC(=N)N)NC(=O)[C@@H](N)Cc1ccc(-c2ccccc2)cc1` [Compound 1], the MIC turned out to be 12.5 µM (≈ 9.16 µg/mL).

Consider `N=C(N)NCCC[C@H](NC(=O)[C@H](Cc1ccc(-c2ccccc2)cc1)NC(=O)[C@H](CCCNC(=N)N)NC(=O)[C@@H](N)Cc1ccc(-c2ccccc2)cc1)C(N)=O` [Compound 3] (H-[Bip]R[Bip]R-NH2), for which the MIC came out at 12.5 µM (≈ 9.7 µg/mL).

Turning to `N=C(N)NCCC[C@@H](NC(=O)[C@@H](Cc1ccc(-c2ccccc2)cc1)NC(=O)[C@@H](CCCNC(=N)N)NC(=O)[C@H](N)Cc1ccc(-c2ccccc2)cc1)C(N)=O` [Compound 4] (H-[dBip][dR][dBip][dR]-NH2), the MIC is 12.5 µM (≈ 9.7 µg/mL).

For `N=C(N)NCCC[C@H](NC(=O)[C@H](Cc1ccc(-c2ccccc2)cc1)NC(=O)[C@H](CCCNC(=N)N)NC(=O)[C@@H](N)Cc1ccccc1)C(N)=O` [Compound 5] (H-FR[Bip]R-NH2), the MIC is more than 100 µM.

As to `N=C(N)NCCC[C@H](NC(=O)[C@H](Cc1ccccc1)NC(=O)[C@H](CCCNC(=N)N)NC(=O)[C@@H](N)Cc1ccc(-c2ccccc2)cc1)C(N)=O` [Compound 6] (H-[Bip]RFR-NH2), the MIC is on record as more than 100 µM.

As to `Cc1ccc(C[C@H](N)C(=O)N[C@@H](CCCNC(=N)N)C(=O)N[C@@H](Cc2ccc(-c3ccccc3)cc2)C(=O)N[C@@H](CCCNC(=N)N)C(N)=O)cc1` [Compound 7] (H-[Phe(4-Me)]R[Bip]R-NH2), the MIC is reported as 100 µM (≈ 71.4 µg/mL).

For `Cc1ccc(C[C@H](NC(=O)[C@H](CCCNC(=N)N)NC(=O)[C@@H](N)Cc2ccc(-c3ccccc3)cc2)C(=O)N[C@@H](CCCNC(=N)N)C(N)=O)cc1` [Compound 8] (H-[Bip]R[Phe(4-Me)]R-NH2), the MIC is given as more than 100 µM.

Take `N=C(N)NCCC[C@H](NC(=O)[C@H](Cc1ccc(-c2ccccc2)cc1)NC(=O)[C@H](CCCNC(=N)N)NC(=O)[C@@H](N)Cc1ccc(Cl)cc1)C(N)=O` [Compound 9] (H-[Phe(4-Cl)]R[Bip]R-NH2): the MIC turned out to be 100 µM (≈ 73.4 µg/mL).

In the case of `N=C(N)NCCC[C@H](NC(=O)[C@H](Cc1ccc(Cl)cc1)NC(=O)[C@H](CCCNC(=N)N)NC(=O)[C@@H](N)Cc1ccc(-c2ccccc2)cc1)C(N)=O` [Compound 10] (H-[Bip]R[Phe(4-Cl)]R-NH2), the MIC stood at 100 µM (≈ 73.4 µg/mL).

For the compound `N=C(N)NCCC[C@H](NC(=O)[C@H](Cc1ccc(-c2ccccc2)cc1)NC(=O)[C@H](CCCNC(=N)N)NC(=O)[C@@H](N)Cc1ccc(Br)cc1)C(N)=O` [Compound 11] (H-[Phe(4-Br)]R[Bip]R-NH2), the MIC stood at 50 µM (≈ 38.9 µg/mL).

As for `N=C(N)NCCC[C@H](NC(=O)[C@H](Cc1ccc(Br)cc1)NC(=O)[C@H](CCCNC(=N)N)NC(=O)[C@@H](N)Cc1ccc(-c2ccccc2)cc1)C(N)=O` [Compound 12] (H-[Bip]R[Phe(4-Br)]R-NH2), the MIC was 100 µM (≈ 77.9 µg/mL).

On to `N=C(N)NCCC[C@H](NC(=O)[C@H](Cc1ccc(-c2ccccc2)cc1)NC(=O)[C@H](CCCNC(=N)N)NC(=O)[C@@H](N)Cc1ccc(I)cc1)C(N)=O` [Compound 13] (H-[Phe(4-I)]R[Bip]R-NH2), for which the MIC is reported as 50 µM (≈ 41.3 µg/mL).

On to `N=C(N)NCCC[C@H](NC(=O)[C@H](Cc1ccc(I)cc1)NC(=O)[C@H](CCCNC(=N)N)NC(=O)[C@@H](N)Cc1ccc(-c2ccccc2)cc1)C(N)=O` [Compound 14] (H-[Bip]R[Phe(4-I)]R-NH2), for which the MIC was found to be 100 µM (≈ 82.6 µg/mL).

For the compound `N=C(N)NCCC[C@H](NC(=O)[C@H](Cc1ccc(-c2ccccc2)cc1)NC(=O)[C@H](CCCNC(=N)N)NC(=O)[C@@H](N)Cc1ccc(-c2ccc(Cl)cc2)cc1)C(N)=O` [Compound 15] (H-[Bip(4'-Cl)]R[Bip]R-NH2), the MIC was determined as 6.25 µM (≈ 5.07 µg/mL).

Consider `N=C(N)NCCC[C@H](NC(=O)[C@H](Cc1ccc(-c2ccc(Cl)cc2)cc1)NC(=O)[C@H](CCCNC(=N)N)NC(=O)[C@@H](N)Cc1ccc(-c2ccccc2)cc1)C(N)=O` [Compound 16] (H-[Bip]R[Bip(4'-Cl)]R-NH2), for which the MIC is reported as 6.25 µM (≈ 5.07 µg/mL).

Consider `N=C(N)NCCC[C@H](NC(=O)[C@H](Cc1ccc(-c2ccccc2)cc1)NC(=O)[C@H](CCCNC(=N)N)NC(=O)[C@@H](N)Cc1ccc(-c2ccc(Cl)c(Cl)c2)cc1)C(N)=O` [Compound 17], for which the MIC is recorded as 6.25 µM (≈ 5.28 µg/mL).

Take `N=C(N)NCCC[C@H](NC(=O)[C@H](Cc1ccc(-c2ccc(Cl)c(Cl)c2)cc1)NC(=O)[C@H](CCCNC(=N)N)NC(=O)[C@@H](N)Cc1ccc(-c2ccccc2)cc1)C(N)=O` [Compound 18]: the MIC is recorded as 6.25 µM (≈ 5.28 µg/mL).

Turning to `N=C(N)NCCC[C@H](NC(=O)[C@H](Cc1ccc(-c2ccccc2)cc1)NC(=O)[C@H](CCCNC(=N)N)NC(=O)[C@@H](N)Cc1ccc(-c2ccc(Br)cc2)cc1)C(N)=O` [Compound 19], the MIC is 6.25 µM (≈ 5.34 µg/mL).

`N=C(N)NCCC[C@H](NC(=O)[C@H](Cc1ccc(-c2ccc(Br)cc2)cc1)NC(=O)[C@H](CCCNC(=N)N)NC(=O)[C@@H](N)Cc1ccc(-c2ccccc2)cc1)C(N)=O` [Compound 20]: the MIC was determined as 6.25 µM (≈ 5.34 µg/mL).

As for `Cc1ccc(-c2ccc(C[C@H](N)C(=O)N[C@@H](CCCNC(=N)N)C(=O)N[C@@H](Cc3ccc(-c4ccccc4)cc3)C(=O)N[C@@H](CCCNC(=N)N)C(N)=O)cc2)cc1` [Compound 21] (H-[Bip(4'-Me)]R[Bip]R-NH2), the MIC amounted to 12.5 µM (≈ 9.87 µg/mL).

For the compound `Cc1ccc(-c2ccc(C[C@H](NC(=O)[C@H](CCCNC(=N)N)NC(=O)[C@@H](N)Cc3ccc(-c4ccccc4)cc3)C(=O)N[C@@H](CCCNC(=N)N)C(N)=O)cc2)cc1` [Compound 22] (H-[Bip]R[Bip(4'-Me)]R-NH2), the MIC is 12.5 µM (≈ 9.87 µg/mL).

On to `CC(C)(C)c1ccc(-c2ccc(C[C@H](N)C(=O)N[C@@H](CCCNC(=N)N)C(=O)N[C@@H](Cc3ccc(-c4ccccc4)cc3)C(=O)N[C@@H](CCCNC(=N)N)C(N)=O)cc2)cc1` [Compound 23], for which the MIC is reported as 12.5 µM (≈ 10.4 µg/mL).

Take `CC(C)(C)c1ccc(-c2ccc(C[C@H](NC(=O)[C@H](CCCNC(=N)N)NC(=O)[C@@H](N)Cc3ccc(-c4ccccc4)cc3)C(=O)N[C@@H](CCCNC(=N)N)C(N)=O)cc2)cc1` [Compound 24]: the MIC is recorded as 12.5 µM (≈ 10.4 µg/mL).

Regarding `N=C(N)NCCC[C@H](NC(=O)[C@H](Cc1ccc(-c2ccccc2)cc1)NC(=O)[C@H](CCCNC(=N)N)NC(=O)[C@@H](N)Cc1ccc(-c2ccc(-c3ccccc3)cc2)cc1)C(N)=O` [Compound 25], the MIC is recorded as 100 µM (≈ 85.2 µg/mL).

Regarding `N=C(N)NCCC[C@H](NC(=O)[C@H](Cc1ccc(-c2ccc(-c3ccccc3)cc2)cc1)NC(=O)[C@H](CCCNC(=N)N)NC(=O)[C@@H](N)Cc1ccc(-c2ccccc2)cc1)C(N)=O` [Compound 26], the MIC came to 25 µM (≈ 21.3 µg/mL).

For `N=C(N)NCCC[C@H](NC(=O)[C@H](Cc1ccc(-c2ccccc2)cc1)NC(=O)[C@H](CCCNC(=N)N)NC(=O)[C@@H](N)Cc1ccc(-c2cccc(Cl)c2)cc1)C(N)=O` [Compound 27], the MIC came to 6.25 µM (≈ 5.07 µg/mL).

Regarding `N=C(N)NCCC[C@H](NC(=O)[C@H](Cc1ccc(-c2cccc(Cl)c2)cc1)NC(=O)[C@H](CCCNC(=N)N)NC(=O)[C@@H](N)Cc1ccc(-c2ccccc2)cc1)C(N)=O` [Compound 28], the MIC stood at 6.25 µM (≈ 5.07 µg/mL).

Regarding `CC(C)(C)c1cc(-c2ccc(C[C@H](N)C(=O)N[C@@H](CCCNC(=N)N)C(=O)N[C@@H](Cc3ccc(-c4ccccc4)cc3)C(=O)N[C@@H](CCCNC(=N)N)C(N)=O)cc2)cc(C(C)(C)C)c1` [Compound 29], the MIC is 50 µM (≈ 44.4 µg/mL).

Turning to `CC(C)(C)c1cc(-c2ccc(C[C@H](NC(=O)[C@H](CCCNC(=N)N)NC(=O)[C@@H](N)Cc3ccc(-c4ccccc4)cc3)C(=O)N[C@@H](CCCNC(=N)N)C(N)=O)cc2)cc(C(C)(C)C)c1` [Compound 30], the MIC was found to be 50 µM (≈ 44.4 µg/mL).

With `N=C(N)NCCC[C@H](NC(=O)[C@H](Cc1ccc(-c2ccccc2)cc1)NC(=O)[C@H](CCCNC(=N)N)NC(=O)[C@@H](N)Cc1ccc(-c2ccccc2)cc1)C(N)=O` [Compound 31] (H-[Bip]R[Bip]R-NH2), the MIC is on record as 100 µM (≈ 77.6 µg/mL).

As to `N=C(N)NCCC[C@H](NC(=O)[C@H](Cc1ccc(-c2ccccc2)cc1)NC(=O)[C@H](CCCNC(=N)N)NC(=O)[C@@H](N)Cc1ccc(-c2ccccc2)cc1)C(N)=O` [Compound 32] (H-[Bip]R[Bip]R-NH2), the MIC was found to be 50 µM (≈ 38.8 µg/mL).

Regarding `N=C(N)NCCC[C@@H](NC(=O)[C@H](N)Cc1ccc(-c2ccc(Cl)cc2)cc1)C(=O)N[C@H](Cc1ccc(-c2ccc(Cl)cc2)cc1)C(N)=O` [Compound 35], the MIC is 6.25 µM (≈ 4.3 µg/mL).

Turning to `N=C(N)NCCC[C@@H](NC(=O)[C@@H](Cc1ccc(-c2ccc(Cl)cc2)cc1)NC(=O)[C@H](N)CCCNC(N)=O)C(N)=O` [Compound 36], the MIC is more than 100 µM.

Take `N=C(N)NCCC[C@@H](NC(=O)[C@H](N)Cc1ccc(-c2ccc(Cl)cc2)cc1)C(N)=O` [Compound 37]: the MIC is recorded as more than 100 µM.

Take `NC(=O)NCCC[C@@H](N)C(=O)N[C@H](Cc1ccc(-c2ccc(Cl)cc2)cc1)C(N)=O` [Compound 38]: the MIC is given as more than 100 µM.

For `N=C(N)NCCC[C@@H](N)C(=O)N[C@H](Cc1ccc(-c2ccc(Cl)cc2)cc1)C(=O)N[C@H](CCCNC(=N)N)C(=O)N[C@H](Cc1ccc(-c2ccc(Cl)cc2)cc1)C(=O)N[C@H](CCCNC(=N)N)C(N)=O` [Compound 39] (H-[dR][dBip(4'-Cl)][dR][dBip(4'-Cl)][dR]-NH2), the MIC came to 3.125 µM (≈ 3.13 µg/mL).
